In PubChem BioAssay AID248 (DTP/NCI, 2004):
“And” between values parts separate entries of the source, which are not always exact repeats. Equal entries are not always repeated. Inconclusive results and toxic doses are left out. Cut-off read from the data, not from the text of the source: active = T/C of 150% or more; inactive = T/C below 125%.

Test system: L1210 leukemia ip in BDF1 mice, survival T/C
Assay: NCI In Vivo Anticancer Drug Screen. Data for tumor model L1210 Leukemia (intraperitoneal) in B6D2F1 (BDF1) mice
Settings: endpoint: mean survival time, higher = longer survival
In short: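 Read-out is survival time, reported as the treated-group measurement over the vehicle-control measurement.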

[1] = dose: 200.0 mg/kg/injection, schedule: Q04DX003 (ip), vehicle: saline with Tween-80
[2] = dose: 100.0 mg/kg/injection, schedule: Q01DX009 (ip), vehicle: Klucel (hydroxypropylcellulose) (HPC)
[3] = dose: 200.0 mg/kg/injection, schedule: Q01DX009 (ip), vehicle: Klucel (hydroxypropylcellulose) (HPC)
[4] = dose: 400.0 mg/kg/injection, schedule: Q01DX009 (ip), vehicle: Klucel (hydroxypropylcellulose) (HPC)
[5] = dose: 100.0 mg/kg/injection, schedule: Q04DX003 (ip), vehicle: saline
[6] = dose: 200.0 mg/kg/injection, schedule: Q04DX003 (ip), vehicle: saline
[7] = dose: 400.0 mg/kg/injection, schedule: Q04DX003 (ip), vehicle: saline
[8] = dose: 50.0 mg/kg/injection, schedule: Q01DX009 (ip), vehicle: Klucel (hydroxypropylcellulose) (HPC)
[9] = dose: 100.0 mg/kg/injection, schedule: Q04DX003 (ip), vehicle: Klucel (hydroxypropylcellulose) (HPC)
[10] = dose: 200.0 mg/kg/injection, schedule: Q04DX003 (ip), vehicle: Klucel (hydroxypropylcellulose) (HPC)
[11] = dose: 400.0 mg/kg/injection, schedule: Q04DX003 (ip), vehicle: Klucel (hydroxypropylcellulose) (HPC)
[12] = dose: 100.0 mg/kg/injection, schedule: Q04DX002 (ip), vehicle: Klucel (hydroxypropylcellulose) (HPC)
[13] = dose: 200.0 mg/kg/injection, schedule: Q04DX002 (ip), vehicle: Klucel (hydroxypropylcellulose) (HPC)
[14] = dose: 400.0 mg/kg/injection, schedule: Q04DX002 (ip), vehicle: Klucel (hydroxypropylcellulose) (HPC)

Measured: T/C

CC(=O)C1C(N2CC2)CC2C3CCC4=CC(=O)CCC4(C)C3CCC21C (stereo not drawn)
inactive: dose: 50.0 mg/kg/injection, schedule: Q01DX001 (sc), vehicle: steriod suspending solution 101 % of control | dose: 100.0 mg/kg/injection, schedule: Q01DX001 (sc), vehicle: steriod suspending solution 104 % of control | dose: 200.0 mg/kg/injection, schedule: Q01DX001 (sc), vehicle: steriod suspending solution 101 % of control

C/C=C(\CC)C1(CCC)C(=O)NC(=O)N(C)C1=O (stereo not drawn)
inactive: dose: 75.0 mg/kg/injection, schedule: Q01DX001 (ip), vehicle: other 103 % of control | dose: 75.0 mg/kg/injection, schedule: Q01DX001 (ip), vehicle: saline 95 % of control | dose: 150.0 mg/kg/injection, schedule: Q01DX001 (ip), vehicle: other 103 % of control | dose: 150.0 mg/kg/injection, schedule: Q01DX001 (ip), vehicle: saline 106 % of control | dose: 300.0 mg/kg/injection, schedule: Q01DX001 (ip), vehicle: other 101 % of control | dose: 300.0 mg/kg/injection, schedule: Q01DX001 (ip), vehicle: saline 106 % of control

C=CCN(CC=C)c1nc(OC)nc(OC)n1
inactive: dose: 25.0 mg/kg/injection, schedule: Q01DX009 (ip), vehicle: saline with Tween-80 92 % of control | dose: 25.6 mg/kg/injection, schedule: Q04DX002 (ip), vehicle: saline with Tween-80 97 % of control | dose: 50.0 mg/kg/injection, schedule: Q01DX009 (ip), vehicle: saline with Tween-80 94 % of control | dose: 50.0 mg/kg/injection, schedule: Q04DX003 (ip), vehicle: saline with Tween-80 95 % of control | dose: 64.0 mg/kg/injection, schedule: Q04DX002 (ip), vehicle: saline with Tween-80 101 % of control | dose: 100.0 mg/kg/injection, schedule: Q01DX009 (ip), vehicle: saline with Tween-80 94 % of control | dose: 100.0 mg/kg/injection, schedule: Q04DX003 (ip), vehicle: saline with Tween-80 95 % of control and 103 % of control | dose: 160.0 mg/kg/injection, schedule: Q04DX002 (ip), vehicle: saline with Tween-80 101 % of control | [1] 92 % of control | dose: 400.0 mg/kg/injection, schedule: Q04DX002 (ip), vehicle: saline with Tween-80 101 % of control

COc1cc(/C=N/N=C(\C)c2ccc3ccccc3c2)cc(OC)c1OC
inactive: [2] 90 % of control | [3] 94 % of control | [4] 100 % of control

O=C(COc1cc(Cl)c(Cl)cc1Cl)Nc1cccc2c1C(=O)c1ccccc1C2=O
inactive: dose: 75.0 mg/kg/injection, schedule: Q04DX002 (ip), vehicle: Klucel (hydroxypropylcellulose) (HPC) 98 % of control | dose: 150.0 mg/kg/injection, schedule: Q04DX002 (ip), vehicle: Klucel (hydroxypropylcellulose) (HPC) 103 % of control | dose: 300.0 mg/kg/injection, schedule: Q04DX002 (ip), vehicle: Klucel (hydroxypropylcellulose) (HPC) 103 % of control

CCCCCN(CCCCC)CCCNc1c2c(nc3ccc(Cl)cc13)CCCC2
inactive: dose: 50.0 mg/kg/injection, schedule: Q01DX001 (ip), vehicle: saline 96 % of control

CCCCN1C(=O)C2CCc3ccncc3C2C1=O (stereo not drawn)
inactive: [5] 103 % of control | [6] 97 % of control | [7] 103 % of control

O=C1C(=O)N(CNC(c2ccccc2)c2ccccc2)c2ccccc21
inactive: [1] 87 % of control | dose: 400.0 mg/kg/injection, schedule: Q01DX009 (ip), vehicle: saline with Tween-80 96 % of control

CCC(=O)ONO
inactive: dose: 50.0 mg/kg/injection, schedule: Q01DX009 (ip), vehicle: saline 94 % of control | dose: 100.0 mg/kg/injection, schedule: Q01DX009 (ip), vehicle: saline 102 % of control | dose: 200.0 mg/kg/injection, schedule: Q01DX009 (ip), vehicle: saline 94 % of control

CCCCCCCCCC(=O)N1CCC(CCCc2ccccc2)CC1
inactive: dose: 75.0 mg/kg/injection, schedule: Q01DX001 (ip), vehicle: carboxymethylcellulose (CMC) 95 % of control | dose: 150.0 mg/kg/injection, schedule: Q01DX001 (ip), vehicle: carboxymethylcellulose (CMC) 92 % of control | dose: 300.0 mg/kg/injection, schedule: Q01DX001 (ip), vehicle: carboxymethylcellulose (CMC) 95 % of control

COc1ccc(S(=O)(=O)NC(=O)NC(=O)C=C(C)C)cc1
inactive: [8] 98 % of control | [2] 104 % of control | [9] 102 % of control | [3] 96 % of control | [10] 98 % of control | [11] 101 % of control

CCOC(=O)C(Cc1ccc(O)cc1)Nc1nc2ccccc2o1 (stereo not drawn)
inactive: dose: 100.0 mg/kg/injection, schedule: Q01DX001 (ip), vehicle: carboxymethylcellulose (CMC) 96 % of control | dose: 200.0 mg/kg/injection, schedule: Q01DX001 (ip), vehicle: carboxymethylcellulose (CMC) 96 % of control | dose: 400.0 mg/kg/injection, schedule: Q01DX001 (ip), vehicle: carboxymethylcellulose (CMC) 96 % of control

CCOc1nsc(OCC)n1
inactive: dose: 75.0 mg/kg/injection, schedule: Q01DX009 (ip), vehicle: other 103 % of control | [5] 98 % of control | dose: 150.0 mg/kg/injection, schedule: Q01DX009 (ip), vehicle: other 107 % of control | [6] 101 % of control | dose: 300.0 mg/kg/injection, schedule: Q01DX009 (ip), vehicle: other 93 % of control | [7] 103 % of control

COc1ccc(O)c(/C=N\Nc2ccccc2)c1
inactive: [2] 89 % of control | [9] 96 % of control | [3] 91 % of control | [10] 94 % of control | [4] 86 % of control | [11] 92 % of control

CCCCCCN(CCCCCC)C1=C(Cl)C(=O)c2ccccc2C1=O
inactive: dose: 12.5 mg/kg/injection, schedule: Q01DX001 (ip), vehicle: carboxymethylcellulose (CMC) 97 % of control | dose: 25.0 mg/kg/injection, schedule: Q01DX001 (ip), vehicle: carboxymethylcellulose (CMC) 103 % of control | dose: 50.0 mg/kg/injection, schedule: Q01DX001 (ip), vehicle: carboxymethylcellulose (CMC) 96 % of control

COC(=O)/C=C/Sc1ccccc1C(=O)OC
inactive: dose: 50.0 mg/kg/injection, schedule: Q04DX003 (ip), vehicle: other 104 % of control | dose: 100.0 mg/kg/injection, schedule: Q04DX003 (ip), vehicle: other 87 % of control | dose: 200.0 mg/kg/injection, schedule: Q04DX003 (ip), vehicle: other 95 % of control

Cc1[nH][nH]c(=O)c1N=Nc1ccccc1
inactive: [8] 94 % of control | [2] 98 % of control | [3] 98 % of control

ClC1=C(Cl)C2(Cl)C3(Cl)C(Cl)=C(Cl)C(Cl)(C3c3ccccc3)C2(Cl)C1c1ccccc1 (stereo not drawn)
inactive: dose: 50.0 mg/kg/injection, schedule: Q04DX003 (ip), vehicle: Klucel (hydroxypropylcellulose) (HPC) 94 % of control | dose: 100.0 mg/kg/injection, schedule: Q01DX009 (ip), vehicle: saline sonified 96 % of control | [9] 97 % of control | dose: 200.0 mg/kg/injection, schedule: Q01DX009 (ip), vehicle: saline sonified 96 % of control | [10] 89 % of control | dose: 400.0 mg/kg/injection, schedule: Q01DX009 (ip), vehicle: saline sonified 91 % of control

CCCCN1C(=O)C(=O)N(c2ccccc2C(F)(F)F)C1=O
inactive: [2] 106 % of control and 88 % of control | [12] 94 % of control and 105 % of control | [3] 106 % of control | [13] 101 % of control and 90 % of control | [4] 107 % of control | [14] 94 % of control and 116 % of control

Cn1c(=O)c2c(ncn2CC[n+]2cccc(C(N)=O)c2)n(C)c1=O
inactive: [5] 101 % of control | [6] 97 % of control

O=S(=O)(c1cc(Cl)ccc1Cl)N1CCc2ccccc2C1
inactive: dose: 100.0 mg/kg/injection, schedule: Q04DX002 (ip), vehicle: gum acacia 104 % of control | dose: 200.0 mg/kg/injection, schedule: Q04DX002 (ip), vehicle: gum acacia 93 % of control | dose: 400.0 mg/kg/injection, schedule: Q04DX002 (ip), vehicle: gum acacia 93 % of control

Nc1nc2n(n1)C(=O)C(=O)N2
inactive: dose: 100.0 mg/kg/injection, schedule: Q01DX005 (ip), vehicle: Klucel (hydroxypropylcellulose) (HPC) 109 % of control | [2] 101 % of control | [12] 101 % of control | dose: 200.0 mg/kg/injection, schedule: Q01DX005 (ip), vehicle: Klucel (hydroxypropylcellulose) (HPC) 98 % of control | [3] 104 % of control | [13] 96 % of control | dose: 400.0 mg/kg/injection, schedule: Q01DX005 (ip), vehicle: Klucel (hydroxypropylcellulose) (HPC) 95 % of control | [4] 96 % of control | [14] 96 % of control
